The source of these data is patent US20180360855A1, “THE FORMULATION COMPRISING PHOSPHOMYCINE AND ASCORBIC ACID FOR THE TREATMENT OF BACTERIAL URINARY SYSTEM INFECTIONS” (priority 2015, published 2018).

In one series the test system is susceptible bacteria. Particulars: cited from earlier work.
Series [1] in a line: pH of solutions of Phosphomycine Trometamol with and without ascorbic acid in water. The series is classed as physicochemical.

Consider `C[C@@H]1O[C@@H]1P(=O)(O)O` [Phosphomycine], for which, in the series with susceptible bacteria (in the presence of Alkali pH, glycose, phosphate, and sodium chloride), the “efficiency in vitro depending on environmental conditions” value is reported as “reduced”. The “time in which efficiency on susceptible bacteria is shown” value with susceptible bacteria (in vitro studies) was 30 min.

As for `C[C@@H]1O[C@@H]1P(=O)(O)O` [Phosphomycine Trometamol, Phosphomycine trometamol], the “pH in 50 ml water” value in series [1] (5.631 g Phosphomycine Trometamol (+ 1.0 g ascorbic acid) in 50 ml water) is on record as 3.608. Besides, the “pH in 100 ml water” value in series [1] (5.631 g Phosphomycine Trometamol (+ 1.0 g ascorbic acid) in 100 ml water) is on record as 3.743. Besides, the “pH in 150 ml water” value in series [1] (5.631 g Phosphomycine Trometamol (+ 1.0 g ascorbic acid) in 150 ml water) came out at 3.824.
